Reference: patent US11254640B2, “N-substituted indoles and other heterocycles for treating brain disorders” (The Regents of the University of California, priority 2019, dated 2022)
Read-outs that look alike come from different tables or passages of the source.

Legend:
Format in all cases: cell-based
5HT2A sensor [1] = experiment: 5HT2A sensor assay, agonist mode (sLight1.3s HEK293T stable line); details: percent relative to 5-HT at 100 uM; for 5HT2A Agonist mean @ 100 nM (%): 100 nM compound; for 5HT2A Agonist mean @ 10 μM (%): 10 μM compound; for 5HT2A Agonist mean @ 100 μM (%): 100 μM compound
Procedure: In some embodiments, hallucinogenic potential of a compound of the present invention is determined in vitro. In some embodiments, hallucinogenic potential of a compound of the present invention is determined using a 5HT2A sensor assay. In some embodiments, the 5HT2A sensor assay is in an agonist mode or an antagonist mode. In some embodiments, the 5HT2A sensor assay is in an agonist mode.
(§1) 5HT2A Sensor Assays. HEK293T (ATCC) 5HT2A sensor stable line (sLight1.3s) was generated via lentiviral transduction of HIV-EF1α-sLight1.3 and propagated from a single colony. Lentivirus was produced using 2nd generation lentiviral plasmids pHIV-EF1α-sLight1.3, pHCMV-G, and pCMV-deltaR8.2.
(§2) For the screening of the 41 compounds, sLight1.3s cells were plated in 96-well plates at a density of 40000 24-hours prior to imaging. On the day of imaging, compounds solubilized in DMSO were diluted from the 100 mM stock solution to working concentrations of 1 mM, 100 μM and 1 μM with a DMSO concentration of 1%. Immediately prior to imaging, cells growing in DMEM (Gibco) were washed 2× with HBSS (Gibco) and in agonist mode 180 μL of HBSS or in antagonist mode 160 μL of HBSS was added to each well after the final wash. For agonist mode, images were taken before and after the addition of the 20 μL compound working solution into the wells containing 180 μL HBSS. This produced final compound concentrations of 100 μM, 10 μM and 100 nM with a DMSO concentration of 0.1%. For antagonist mode, images were taken before and after addition of 20 μL of 900 nM 5-HT and again after 20 μL of the compound working solutions to produce final concentrations of 100 nM for 5HT and 100 μM, 10 μM and 100 nM for the compounds with a DMSO concentration of 0.1%. Each compound was tested in triplicates (3 wells) for each concentration (100 μM, 10 μM and 100 nM). Additionally, within each plate, 100 nM 5HT and 0.1% DMSO controls were also imaged.
(§3) Imaging was performed using the Leica DMi8 inverted microscope with a 40× objective using the FITC preset with an excitation of 460 nm and emission of 512-542 nm. For each well, the cellular membrane where the 5HT2A sensor is targeted was autofocused using the adaptive focus controls and 5 images from different regions within the well were taken with each image processed from a 2×2 binning.
(§4) For data processing, the membranes from each image was segmented and analyzed using a custom algorithm written in MATLAB producing a single raw fluorescence intensity value. For each well the 5 raw fluorescence intensity values generated from the 5 images were averaged and the change in fluorescence intensity (dFF) was calculated as: dFF=(Fsat−Fapo)/Fapo
(§5) For both agonist and antagonist modes, the fluorescence intensity values before compound addition in HBSS only were used as the Fapo values while the fluorescence intensity values after compound addition were used as the Fsat values.
(§6) For agonist mode, data are as percent activation relative to 5HT, where 0 is the average of the DMSO wells and 100 is the average of the 100 uM 5HT wells. For antagonist mode, the inactivation score was calculated as: Inactivation score=(dFFF(Compound+5HT)−dFF(5HT))/dFF(5HT)

5HT2A sensor [2] = experiment: 5HT2A sensor assay, antagonist mode (sLight1.3s HEK293T stable line); details: relative to 5-HT at 100 nM; for 5HT2A Antagonist mean @ 100 nM (%): 100 nM compound; for 5HT2A Antagonist mean @ 10 μM (%): 10 μM compound; for 5HT2A Antagonist mean @ 100 μM (%): 100 μM compound
Procedure: In some embodiments, the 5HT2A sensor assay is in an antagonist mode.
as §1, §2, §3, §4, §5, §6

5HT2A = molecular target: T1, 5HT2A (Homo sapiens, UniProt P28223); experiment: Calcium flux assay (Calcium secondary messenger pathway); details: agonist mode
T1 construct: expressed in transfected cells
T1 sequence (P28223 whole entry): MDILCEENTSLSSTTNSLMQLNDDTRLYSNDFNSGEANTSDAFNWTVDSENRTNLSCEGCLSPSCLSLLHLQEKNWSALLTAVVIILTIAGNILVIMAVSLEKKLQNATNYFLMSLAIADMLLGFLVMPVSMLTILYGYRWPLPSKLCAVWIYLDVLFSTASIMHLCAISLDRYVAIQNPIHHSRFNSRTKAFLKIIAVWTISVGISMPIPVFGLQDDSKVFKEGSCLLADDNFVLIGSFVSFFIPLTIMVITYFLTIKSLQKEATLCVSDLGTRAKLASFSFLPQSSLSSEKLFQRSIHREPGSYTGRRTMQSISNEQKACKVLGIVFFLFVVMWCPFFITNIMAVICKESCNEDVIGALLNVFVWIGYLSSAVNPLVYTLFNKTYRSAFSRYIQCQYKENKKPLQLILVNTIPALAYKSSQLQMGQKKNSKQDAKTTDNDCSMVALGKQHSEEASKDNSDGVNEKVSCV
From the text: Calcium Flux Assay. Calcium Secondary Messenger Pathway. The Calcium No Wash^PLUS assay monitors the activation of a GPCR (e.g., 5HT2A) via Gq secondary messenger signaling in a live cell, non-imaging assay format. Calcium mobilization in PathHunter® cell lines or other cell lines stably expressing Gq-coupled GPCRs (e.g., 5HT2A) is monitored using a calcium-sensitive dye that is loaded into cells. GPCR (e.g., 5HT2A) activation by a compound results in the release of calcium from intracellular stores and an increase in dye fluorescence that is measured in real-time. In some embodiments, the ability of a compound of the present invention to modulate 5-HT2A function is determined using a calcium flux assay. In some embodiments, a compound of the present invention activates a calcium flux assay.
Calcium Secondary Messenger Pathway. Cell lines were expanded from freezer stocks according to standard procedures. Cells were seeded in a total volume of 20 μL into black-walled, clear-bottom, Poly-D-lysine coated 384-well microplates and incubated at 37° C. for the appropriate time prior to testing. Assays were performed in 1× Dye Loading Buffer consisting of 1× Dye, 1× Additive A and 2.5 mM Probenecid in HBSS/20 mM Hepes. Probenicid was prepared fresh. Cells were loaded with dye prior to testing. Media was aspirated from cells and replaced with 20 μL Dye Loading Buffer. Cells were incubated for 30-60 minutes at 37° C.
For agonist determination, cells were incubated with sample to induce response. After dye loading, cells were removed from the incubator and 10 μL HBSS/20 mM Hepes was added. 3× vehicle was included in the buffer when performing agonist dose curves to define the EC80 for subsequent antagonist assays. Cells were incubated for 30 minutes at room temperature in the dark to equilibrate plate temperature. Intermediate dilution of sample stocks was performed to generate 4× sample in assay buffer. Compound agonist activity was measured on a FLIPR Tetra (MDS). Calcium mobilization was monitored for 2 minutes and 10 μL 4× sample in HBSS/20 mM Hepes was added to the cells 5 seconds into the assay.
Compound activity was analyzed using CBIS data analysis suite (ChemInnovation, CA). For agonist mode assays, percentage activity is calculated using the following formula: % Activity=100%×(mean RFU of test sample−mean RFU of vehicle control)/(mean MAX RFU control ligand−mean RFU of vehicle control).

rat cortical neurons = experiment: Neurite outgrowth assay; details: Cortical neurone, 1 hour treatment at DIV 4, analysed DIV 7, fold vs DMSO control
From the text: Neurite outgrowth assay. Changes in the pattern of neurite outgrowth have been implicated in neurodegenerative disorders as well as traumatic injuries. The discovery of new compounds that can positively affect neuritogenesis are important for developing new therapeutics for neurological diseases. Measurement of neurite outgrowth of rat cortical neurons using an automated image-based assay was used to determine the neuroplastic effects of the compounds of the present invention. In some embodiments, a compound of the present invention increases the pattern of neurite outgrowth. In some embodiments, a compound of the present invention increases neurite average length compared to a control. In some embodiments, a compound of the present invention increases neurite branch points compared to a control. In some embodiments, a compound of the present invention increases neurite average length and neurite branch points compared to a control.
Neurite Outgrowth Assay. Rat cortical neurons (20,000 cells/well) were freshly isolated from embryonic day 18 rats and cultured in Neurobasal Medium (+B27). The cultured cells were plated in 96 well-plates (avoiding external wells). At DIV 4, the neurons were treated with compound or control (10 μM) for 1 hour followed by complete washout of the compound. At DIV 7, the neurons were analyzed. The experiments were performed in triplicate. Neurite outgrowth was measured analyzing the following parameters: Number of Cell Bodies, total neurite length (pixels), Root Count, Segments, Extremities Count and node points. Changes in the pattern of neurite outgrowth of the neurons were analyzed by immunocytochemistry against β-III-tubulin. Pictures were acquired by the CellInsight CX7 from Thermo Fisher and analyzed using its software. Results generated in the equipment were maximum neurite length, extremity count, root count, dendrite branch points, and total neurite length. The results were compared to DMSO control, representing the fold-change in neuronal outgrowth.

[3] = read-out: Neurite Average Length @ 10 μM
[4] = read-out: Neurite Branch Points: @ 10 μM

## FC(F)(F)Oc1ccc2c(ccn2CCN2CCCCC2)c1 [Example 51, 1-(2-(piperidin-1-yl)ethyl)-5-(trifluoromethoxy)-1H-indole]
5HT2A sensor [1]
  5HT2A Agonist mean @ 100 nM (%): B (does not activate 5HT2A sensor assay in agonist mode)
  5HT2A Agonist mean @ 10 μM (%): B (does not activate 5HT2A sensor assay in agonist mode)
  5HT2A Agonist mean @ 100 μM (%): B (does not activate 5HT2A sensor assay in agonist mode)
5HT2A sensor [2]
  5HT2A Antagonist mean @ 100 nM (%): A (inhibits 5HT response by >100%)
  5HT2A Antagonist mean @ 10 μM (%): A (inhibits 5HT response by >100%)
  5HT2A Antagonist mean @ 100 μM (%): A (inhibits 5HT response by >100%)
5HT2A
  EC50: > 10 µM
Rat cortical neurons; [3]
  fold induction at 10 µM: 1.5 to 3
Rat cortical neurons; [4]
  fold induction at 10 µM: 1.5 to 3

## FC(F)(F)Oc1ccc2c(ccn2CCN2CCOCC2)c1 [Example 52, 4-(2-(5-(trifluoromethoxy)-1H-indol-1-yl)ethyl)morpholine]
5HT2A sensor [1]
  5HT2A Agonist mean @ 100 nM (%): B (does not activate 5HT2A sensor assay in agonist mode)
  5HT2A Agonist mean @ 10 μM (%): B (does not activate 5HT2A sensor assay in agonist mode)
  5HT2A Agonist mean @ 100 μM (%): A (activates 5HT2A sensor assay in agonist mode)
5HT2A sensor [2]
  5HT2A Antagonist mean @ 100 nM (%): A (inhibits 5HT response by >100%)
  5HT2A Antagonist mean @ 10 μM (%): B (inhibits 5HT response by 75% to 100%)
  5HT2A Antagonist mean @ 100 μM (%): B (inhibits 5HT response by 75% to 100%)
5HT2A
  EC50: > 10 µM
Rat cortical neurons; [3]
  fold induction at 10 µM: 1.5 to 3
Rat cortical neurons; [4]
  fold induction at 10 µM: 1.5 to 3

## CN(C)CCn1cnc2ccccc21 [Example 57, 2-(1H-benzo[d]imidazol-1-yl)-N,N-dimethylethan-1-amine]
5HT2A sensor [1]
  5HT2A Agonist mean @ 100 nM (%): B (does not activate 5HT2A sensor assay in agonist mode)
  5HT2A Agonist mean @ 10 μM (%): B (does not activate 5HT2A sensor assay in agonist mode)
  5HT2A Agonist mean @ 100 μM (%): B (does not activate 5HT2A sensor assay in agonist mode)
5HT2A sensor [2]
  5HT2A Antagonist mean @ 100 nM (%): B (inhibits 5HT response by 75% to 100%)
  5HT2A Antagonist mean @ 10 μM (%): A (inhibits 5HT response by >100%)
  5HT2A Antagonist mean @ 100 μM (%): A (inhibits 5HT response by >100%)
5HT2A
  EC50: > 10 µM
Rat cortical neurons; [3]
  fold induction at 10 µM: 1.5 to 3
Rat cortical neurons; [4]
  fold induction at 10 µM: 1.5 to 3

## Cc1nc2ccccc2n1CCN(C)C [Example 58, N,N-dimethyl-2-(2-methyl-1H-benzo[d]imidazol-1-yl)ethan-1-amine]
5HT2A sensor [1]
  5HT2A Agonist mean @ 100 nM (%): B (does not activate 5HT2A sensor assay in agonist mode)
  5HT2A Agonist mean @ 10 μM (%): B (does not activate 5HT2A sensor assay in agonist mode)
  5HT2A Agonist mean @ 100 μM (%): A (activates 5HT2A sensor assay in agonist mode)
5HT2A sensor [2]
  5HT2A Antagonist mean @ 100 nM (%): A (inhibits 5HT response by >100%)
  5HT2A Antagonist mean @ 10 μM (%): A (inhibits 5HT response by >100%)
  5HT2A Antagonist mean @ 100 μM (%): A (inhibits 5HT response by >100%)
5HT2A
  EC50: > 10 µM
Rat cortical neurons; [3]
  fold induction at 10 µM: 1.5 to 3
Rat cortical neurons; [4]
  fold induction at 10 µM: 1.5 to 3

## COc1cc2ccn(C[C@@H](C)N(C)C)c2cc1F [Example 61, (R)-1-(6-fluoro-5-methoxy-1H-indol-1-yl)-N,N-dimethylpropan-2-amine]
5HT2A sensor [1]
  5HT2A Agonist mean @ 100 nM (%): B (does not activate 5HT2A sensor assay in agonist mode)
  5HT2A Agonist mean @ 10 μM (%): B (does not activate 5HT2A sensor assay in agonist mode)
  5HT2A Agonist mean @ 100 μM (%): B (does not activate 5HT2A sensor assay in agonist mode)
5HT2A sensor [2]
  5HT2A Antagonist mean @ 100 nM (%): A (inhibits 5HT response by >100%)
  5HT2A Antagonist mean @ 10 μM (%): A (inhibits 5HT response by >100%)
  5HT2A Antagonist mean @ 100 μM (%): A (inhibits 5HT response by >100%)
5HT2A
  EC50: > 10 µM
Rat cortical neurons; [3]
  fold induction at 10 µM: 1.5 to 3
Rat cortical neurons; [4]
  fold induction at 10 µM: 1.5 to 3

## COc1cc2ccn(C[C@@H](C)N(C)C)c2cc1OC [Example 62, (R)-1-(5,6-dimethoxy-1H-indol-1-yl)-N,N-dimethylpropan-2-amine]
5HT2A sensor [1]
  5HT2A Agonist mean @ 100 nM (%): B (does not activate 5HT2A sensor assay in agonist mode)
  5HT2A Agonist mean @ 10 μM (%): B (does not activate 5HT2A sensor assay in agonist mode)
  5HT2A Agonist mean @ 100 μM (%): A (activates 5HT2A sensor assay in agonist mode)
5HT2A sensor [2]
  5HT2A Antagonist mean @ 100 nM (%): B (inhibits 5HT response by 75% to 100%)
  5HT2A Antagonist mean @ 10 μM (%): B (inhibits 5HT response by 75% to 100%)
  5HT2A Antagonist mean @ 100 μM (%): A (inhibits 5HT response by >100%)
5HT2A
  EC50: > 10 µM
Rat cortical neurons; [3]
  fold induction at 10 µM: 1.5 to 3
Rat cortical neurons; [4]
  fold induction at 10 µM: 1.5 to 3

## COc1cc(OC)c2c(ccn2C[C@@H](C)N(C)C)c1 [Example 63, (R)-1-(5,7-dimethoxy-1H-indol-1-yl)-N,N-dimethylpropan-2-amine]
5HT2A sensor [1]
  5HT2A Agonist mean @ 100 nM (%): B (does not activate 5HT2A sensor assay in agonist mode)
  5HT2A Agonist mean @ 10 μM (%): B (does not activate 5HT2A sensor assay in agonist mode)
  5HT2A Agonist mean @ 100 μM (%): B (does not activate 5HT2A sensor assay in agonist mode)
5HT2A sensor [2]
  5HT2A Antagonist mean @ 100 nM (%): B (inhibits 5HT response by 75% to 100%)
  5HT2A Antagonist mean @ 10 μM (%): B (inhibits 5HT response by 75% to 100%)
  5HT2A Antagonist mean @ 100 μM (%): A (inhibits 5HT response by >100%)
5HT2A
  EC50: > 10 µM
Rat cortical neurons; [3]
  fold induction at 10 µM: 1.5 to 3
Rat cortical neurons; [4]
  fold induction at 10 µM: 1.5 to 3
